{"source": "patent US20260041093A1", "about": "“Ionic Derivatives Of Aromatic Carboxylic Acid For Use As Plant Stimulants, Method For Stimulating Plants And Use Of These Derivatives For Manufacturing Compositions For Stimulating Plants” (FUNDACJA UNIWERSYTETU IM. ADAMA MICKIEWICZA W POZNANIU, priority 2022, published 2026)", "key": {"[1]": {"system": "bell pepper", "experiment": "Bell pepper seedlings in pots sprayed: height, fresh and dry weight (Example 5)", "type": "in vivo", "conditions": "3-chlorosalicylate 80 mg/L, benzothiadiazole salt 30 mg/L", "procedure": "Pepper seedlings were planted into pots with peat substrate (P9 pots having 0,5 l). Pots were placed in greenhouse and cultivated for a 1 month. […] Plants treated with water only were the untreated control. During the course of the experiment, the height of the plants was measured, and at the end the fresh and dry weight of the aboveground part was evaluated."}, "[2]": {"system": "winter wheat", "procedure": "The experiment was established using the long strip method, in four repetitions Gross area of each plot was 48 m^2, while the harvest area was 23.25 m^2 net. Following variants of treatment were tested: • 1. Control—no stimulant application, standard fungicide programme • 2. Stimulant application at BBCH 32, standard fungicide programme • 3. Stimulant application at BBCH 32, no fungicide application • 4. Stimulant application at BBCH 55 and 10-12 days later, standard fungicide programme • 5. […] In this experiment, standard NPK fertilization was applied, using both bulk and liquid fertilizers.\nThe experiment was established using the long strip method, in four repetitions Gross area of each plot was 48 m2, while the harvest area was 23.25 m2 net. Following variants of treatment were tested: • 1. Control—no stimulant application, standard fungicide programme, • 2. Stimulant application at BBCH 32, standard fungicide programme • 3. Stimulant application at BBCH 32, no fungicide application • 4. Stimulant application at BBCH 55 and 10-12 days later, standard fungicide programme • 5. […] In the experiment, uniform NPK fertilization was applied, using both bulk and liquid fertilizers."}, "[3]": {"system": "lettuce", "conditions": "double application, 3-chlorosalicylate 100 mg/L, benzothiadiazole salt 50 mg/L", "text": "The purpose of the study was to determine the effect of foliar spraying with test solutions on lettuce (Lactuca sativa L. ‘Zeralda’) plants. The plants were sprayed 7 and 14 days after transplanting to a permanent site. […] After another 7 days, drought stress was induced (plants in the selected combinations were not watered until symptoms of leaf wilting appeared), followed by proper watering of the plants again. Control plants were watered in turn to a constant weight. After 3 days after re-watering, chlorophyll fluorescence was measured (OJIP test, methodology described, among others, in Kalaji H. M., 2011. Impact of abiotic stress factors on chlorophyll fluorescence in plants of selected barley cultivars Hordeum vulgare L. SGGW Publishing House, Warsaw [https://badanieroslin.pl/wp-content/uploads/2018/11/Oddzialywanie-abiotycznych-czynnikow. . . ..pdf]) and the condition of the plants was assessed.\nThe measurement was carried out after inducing drought stress, followed by re-watering the plants to a constant weight. […] This parameter is lowered by stresses."}, "[4]": {"system": "apple trees (M9 rootstocks)", "conditions": "4 sprays at 14-day intervals; 3-chlorosalicylate 100 mg/L, benzothiadiazole salt 25 mg/L", "text": "Flowers were counted during the experiment, and the number of shoots and leaves in the fall."}, "[5]": {"conditions": "BBCH 32, standard fungicide protection, 80 mg/L, benzothiadiazole salt 30 mg/L"}, "[6]": {"conditions": "BBCH 32, stimulant only, 80 mg/L, benzothiadiazole salt 30 mg/L"}, "[7]": {"conditions": "BBCH 55, standard fungicide protection, 80 mg/L, benzothiadiazole salt 30 mg/L"}, "[8]": {"conditions": "BBCH 55, without fungicide, 80 mg/L, benzothiadiazole salt 30 mg/L"}, "[9]": {"conditions": "first sampling date, 80 mg/L, benzothiadiazole salt 30 mg/L"}, "[10]": {"conditions": "last sampling date, late milk, 80 mg/L, benzothiadiazole salt 30 mg/L"}}, "note": "Read-outs that look alike come from different tables or passages of the source."}
{"smiles": "C[N+](C)(C)CCO.O=C([O-])c1cccc(Cl)c1O", "note": "[choline 3-chlorosalicylate]", "values": [{"measurement": "Average dry mass", "setting": "[1]", "result": 12.2, "unit": "b g"}, {"measurement": "Average fresh mass", "setting": "[1]", "result": 85.7, "unit": "b g"}, {"measurement": "Average plant height, initial height, before first treatment", "setting": "[1]", "result": 41.5, "unit": "a mm"}, {"measurement": "Average plant height, second treatment", "setting": "[1]", "result": 161.8, "unit": "c mm"}, {"measurement": "Average plant height, third treatment", "setting": "[1]", "result": 221.5, "unit": "b mm"}, {"measurement": "Plant height increase", "setting": "[1]", "result": 180.0, "unit": "b mm"}, {"measurement": "increase in calcium uptake", "setting": "[2]; [5]", "result": 4, "unit": "%"}, {"measurement": "increase in gluten content of wheat grain", "setting": "[2]; [5]", "result": 8, "unit": "%"}, {"measurement": "increase in magnesium uptake", "setting": "[2]; [5]", "result": 4, "unit": "%"}, {"measurement": "increase in nitrogen uptake", "setting": "[2]; [5]", "result": 7, "unit": "%"}, {"measurement": "increase in phosphorus uptake", "setting": "[2]; [5]", "result": 8, "unit": "%"}, {"measurement": "increase in potassium uptake", "setting": "[2]; [5]", "result": 6, "unit": "%"}, {"measurement": "increase in protein content of wheat grain", "setting": "[2]; [5]", "result": 10, "unit": "%"}, {"measurement": "increase in calcium uptake", "setting": "[2]; [6]", "result": 6, "unit": "%"}, {"measurement": "increase in gluten content of wheat grain", "setting": "[2]; [6]", "result": 7, "unit": "%"}, {"measurement": "increase in magnesium uptake", "setting": "[2]; [6]", "result": 5, "unit": "%"}, {"measurement": "increase in nitrogen uptake", "setting": "[2]; [6]", "result": 7, "unit": "%"}, {"measurement": "increase in phosphorus uptake", "setting": "[2]; [6]", "result": 9, "unit": "%"}, {"measurement": "increase in potassium uptake", "setting": "[2]; [6]", "result": 8, "unit": "%"}, {"measurement": "increase in protein content of wheat grain", "setting": "[2]; [6]", "result": 8, "unit": "%"}, {"measurement": "increase in calcium uptake", "setting": "[2]; [7]", "result": 4, "unit": "%"}, {"measurement": "increase in gluten content of wheat grain", "setting": "[2]; [7]", "result": 9, "unit": "%"}, {"measurement": "increase in magnesium uptake", "setting": "[2]; [7]", "result": 5, "unit": "%"}, {"measurement": "increase in nitrogen uptake", "setting": "[2]; [7]", "result": 14, "unit": "%"}, {"measurement": "increase in phosphorus uptake", "setting": "[2]; [7]", "result": 12, "unit": "%"}, {"measurement": "increase in potassium uptake", "setting": "[2]; [7]", "result": 6, "unit": "%"}, {"measurement": "increase in protein content of wheat grain", "setting": "[2]; [7]", "result": 11, "unit": "%"}, {"measurement": "increase in calcium uptake", "setting": "[2]; [8]", "result": 5, "unit": "%"}, {"measurement": "increase in gluten content of wheat grain", "setting": "[2]; [8]", "result": 8, "unit": "%"}, {"measurement": "increase in magnesium uptake", "setting": "[2]; [8]", "result": 6, "unit": "%"}, {"measurement": "increase in nitrogen uptake", "setting": "[2]; [8]", "result": 16, "unit": "%"}, {"measurement": "increase in phosphorus uptake", "setting": "[2]; [8]", "result": 12, "unit": "%"}, {"measurement": "increase in potassium uptake", "setting": "[2]; [8]", "result": 5, "unit": "%"}, {"measurement": "increase in protein content of wheat grain", "setting": "[2]; [8]", "result": 10, "unit": "%"}, {"measurement": "fresh weight of aboveground part higher than control", "setting": "[2]; first sampling date (beginning of shooting), first of two sprayed objects (with / without fungicide, respectively), 80 mg/L, benzothiadiazole salt 30 mg/L", "result": 12, "unit": "%"}, {"measurement": "dry root mass higher than control", "setting": "[2]; [9]", "result": 19, "unit": "%"}, {"measurement": "fresh root mass higher than control", "setting": "[2]; [9]", "result": 15, "unit": "%"}, {"measurement": "dry weight of aboveground part higher than control", "setting": "[2]; first sampling date, first of two sprayed objects, 80 mg/L, benzothiadiazole salt 30 mg/L", "result": 11, "unit": "%"}, {"measurement": "fresh weight of aboveground part higher than control", "setting": "[2]; first sampling date, second of two sprayed objects (with / without fungicide, respectively), 80 mg/L, benzothiadiazole salt 30 mg/L", "result": 17, "unit": "%"}, {"measurement": "dry weight of aboveground part higher than control", "setting": "[2]; first sampling date, second of two sprayed objects, 80 mg/L, benzothiadiazole salt 30 mg/L", "result": 16, "unit": "%"}, {"measurement": "SPAD chlorophyll readings versus control", "setting": "[2]; first term, stimulant at BBCH 32, with or without fungicide", "result": "significantly higher"}, {"measurement": "more aboveground biomass, BBCH 55 treatment compared to control", "setting": "[2]; [10]", "result": 31, "unit": "%"}, {"measurement": "more aboveground biomass, BBCH 55 treatment compared to plants sprayed at an earlier stage", "setting": "[2]; [10]", "result": 12, "unit": "%"}, {"measurement": "more root biomass, BBCH 55 treatment compared to control", "setting": "[2]; [10]", "result": 25, "unit": "%"}, {"measurement": "more root biomass, BBCH 55 treatment compared to plants sprayed at an earlier stage", "setting": "[2]; [10]", "result": 17, "unit": "%"}, {"measurement": "fresh and dry root weight versus other experimental facilities", "setting": "[2]; second sampling date", "result": "comparable"}, {"measurement": "fresh and dry matter yields versus other experimental facilities", "setting": "[2]; second sampling date, end of heading", "result": "comparable"}, {"measurement": "SPAD chlorophyll readings", "setting": "[2]; second term, stimulant at BBCH 32 without fungicide versus other objects", "result": "higher"}, {"measurement": "chlorophyll content of wheat leaves versus control", "setting": "[2]; third term, with or without fungicide", "result": "significantly higher"}, {"measurement": "ABS/RC", "setting": "[3]; Control (watered)", "result": 1.48, "unit": "b"}, {"measurement": "DIo/RC", "setting": "[3]; Control (watered)", "result": 0.24, "unit": "a"}, {"measurement": "ETo/RC", "setting": "[3]; Control (watered)", "result": 1.08, "unit": "b"}, {"measurement": "F0", "setting": "[3]; Control (watered)", "result": 4877, "unit": "a"}, {"measurement": "FM", "setting": "[3]; Control (watered)", "result": 34278, "unit": "a"}, {"measurement": "FM/F0", "setting": "[3]; Control (watered)", "result": 7.32, "unit": "c"}, {"measurement": "Fv", "setting": "[3]; Control (watered)", "result": 29401, "unit": "a"}, {"measurement": "Fv/F0", "setting": "[3]; Control (watered)", "result": 6.32, "unit": "c"}, {"measurement": "Fv/FM", "setting": "[3]; Control (watered)", "result": 0.86, "unit": "c"}, {"measurement": "Pi_Abs (PSII functioning index calculated on the basis of energy absorption)", "setting": "[3]; Control (watered)", "result": 12.74, "unit": "days"}, {"measurement": "TRo/RC", "setting": "[3]; Control (watered)", "result": 1.72, "unit": "b"}, {"measurement": "ABS/RC", "setting": "[3]; Drought", "result": 1.20, "unit": "a"}, {"measurement": "DIo/RC", "setting": "[3]; Drought", "result": 0.24, "unit": "a"}, {"measurement": "ETo/RC", "setting": "[3]; Drought", "result": 0.81, "unit": "a"}, {"measurement": "F0", "setting": "[3]; Drought", "result": 5524, "unit": "a"}, {"measurement": "FM", "setting": "[3]; Drought", "result": 33908, "unit": "a"}, {"measurement": "FM/F0", "setting": "[3]; Drought", "result": 6.16, "unit": "ab"}, {"measurement": "Fv", "setting": "[3]; Drought", "result": 28384, "unit": "b"}, {"measurement": "Fv/F0", "setting": "[3]; Drought", "result": 5.16, "unit": "ab"}, {"measurement": "Fv/FM", "setting": "[3]; Drought", "result": 0.84, "unit": "ab"}, {"measurement": "Pi_Abs (PSII functioning index calculated on the basis of energy absorption)", "setting": "[3]; Drought", "result": 7.77, "unit": "b"}, {"measurement": "TRo/RC", "setting": "[3]; Drought", "result": 1.44, "unit": "a"}, {"measurement": "% dry matter (leaf), Average", "setting": "[3]", "result": 3.72, "unit": "b %"}, {"measurement": "% dry matter (leaf), Drought", "setting": "[3]", "result": 3.55, "unit": "b %"}, {"measurement": "% dry matter (leaf), Watered", "setting": "[3]", "result": 3.96, "unit": "b %"}, {"measurement": "Head and root weight, Average", "setting": "[3]", "result": 72.5, "unit": "a g/plant"}, {"measurement": "Head and root weight, Drought", "setting": "[3]", "result": 71.7, "unit": "abc g/plant"}, {"measurement": "Head and root weight, Watered", "setting": "[3]", "result": 73.2, "unit": "abc g/plant"}, {"measurement": "Head weight, Average", "setting": "[3]", "result": 51.3, "unit": "a g/plant"}, {"measurement": "Head weight, Drought", "setting": "[3]", "result": 52.8, "unit": "b g/plant"}, {"measurement": "Head weight, Watered", "setting": "[3]", "result": 50.6, "unit": "ab g/plant"}, {"measurement": "RWC (relative water content), Watered", "setting": "[3]", "result": 73.2, "unit": "ab %"}, {"measurement": "RWC, Average", "setting": "[3]", "result": 73.3, "unit": "a %"}, {"measurement": "RWC, Drought", "setting": "[3]", "result": 71.9, "unit": "ab %"}, {"measurement": "Average number of flowers per plant", "setting": "[4]", "result": 30.3, "unit": "b"}, {"measurement": "Average number of leaves per plant", "setting": "[4]", "result": 45.3, "unit": "b"}, {"measurement": "Average number of shoots per plant", "setting": "[4]", "result": 6.7, "unit": "b"}]}
